Laboratory results published in ChEMBL document CHEMBL3217599, “Selective antitumour activity and ER molecular docking studies of newly synthesizedd-homo fused steroidal tetrazoles” (Medchemcomm, 2013).

Legend:
HT-29 = test: Cytotoxicity against human HT-29 cells expressing estrogen receptor after 48 hrs by MTT assay; format: functional, cell-based; settings: HT-29, 48 h
K562 = test: Cytotoxicity against human K562 cells expressing estrogen receptor after 48 hrs by MTT assay; format: functional, cell-based; settings: K562, 48 h
MCF7 = test: Cytotoxicity against human MCF7 cells expressing estrogen receptor after 48 hrs by MTT assay; format: functional, cell-based; settings: MCF7, 48 h
HeLa = test: Cytotoxicity against human HeLa cells expressing estrogen receptor after 48 hrs by MTT assay; format: functional, cell-based
MDA-MB-231 = test: Cytotoxicity against estrogen receptor-deficient human MDA-MB-231 cells after 48 hrs by MTT assay; format: functional, cell-based; settings: MDA-MB-231, 48 h
PC-3 [1] = test: Cytotoxicity against human PC3 cells expressing estrogen receptor after 48 hrs by MTT assay; format: functional, cell-based; settings: PC-3, 48 h
MRC5 = test: Cytotoxicity against human MRC5 cells expressing estrogen receptor after 48 hrs by MTT assay; format: cell-based; settings: MRC5, 48 h
PC-3 [2] = test: Ratio of doxorubicin IC50 to compound IC50 for human PC3 cells expressing estrogen receptor after 48 hrs by MTT assay; format: functional

Structure (SMILES) | IC50 (HT-29) | IC50 (K562) | IC50 (MCF7) | IC50 (HeLa) | IC50 (MDA-MB-231) | IC50 (PC-3 [1]) | IC50 (MRC5) | Ratio IC50 (PC-3 [2])
COc1cccc2c1C(=O)c1c(O)c3c(c(O)c1C2=O)C[C@@](O)(C(=O)CO)C[C@@H]3O[C@H]1C[C@H](N)[C@H](O)[C@H](C)O1 [DOXORUBICIN] | 0.32 µM | 0.36 µM | 0.75 µM |  |  |  |  | 
CC(=O)O[C@H]1CC[C@@]2(C)C(=CC[C@H]3[C@@H]4Cc5nnnn5[C@H](C)[C@@]4(C)CC[C@@H]32)C1 | > 100 µM | 11.1 µM | 25.4 µM | > 100 µM | 89.6 µM | 15.3 µM | > 100 µM | >6
C[C@H]1n2nnnc2C[C@H]2[C@@H]3CCc4cc(OCc5ccccc5)ccc4[C@H]3CC[C@@]21C | 18 µM | > 100 µM | 4.58 µM | > 100 µM | > 100 µM | > 100 µM | > 100 µM | 
C[C@]12CC[C@@H]3c4ccc(OCc5ccccc5)cc4CC[C@H]3[C@@H]1Cc1nnnn1C2 | > 100 µM | > 100 µM | 12.6 µM | > 100 µM | > 100 µM | 65.5 µM | > 100 µM | 
CC(=O)O[C@H]1CC[C@@]2(C)C(=CC[C@H]3[C@@H]4Cc5nnnn5C[C@@]4(C)CC[C@@H]32)C1 | > 100 µM | 45.2 µM | 56.2 µM | > 100 µM | > 100 µM | 79 µM | > 100 µM | 
